What was measured:
virus H1N1 A/Weiss/43 [1] = assay: microbe, parasite or virus in culture; format: cell-based; settings: Influenza A virus, 120 h; MDCK cells, H1N1 A/Weiss/43, Scheme 1: 8 concentrations 100 μM to 0.05 μM, 5 days, CCK-8
virus H1N1 A/Weiss/43 [2] = assay: microbe, parasite or virus in culture; format: cell-based; settings: Influenza A virus, 120 h; MDCK cells, H1N1 A/Weiss/43, Scheme 2: 8 concentrations 50 nM to 0.023 nM, 5 days, CCK-8
[3] = SD, rat, in vivo, po, 5 mg/kg
Description: (§1) The compounds disclosed herein were administered in form of a saline solution containing 5% DMSO, 5% Kolliphor HS 15 and 90% Saline. […] Plasma samples were collected and stored at −20° C. or −70° C. until LC/MS/MS analysis.

in vivo = settings: SD, rat
Description: as §1

Compound | EC50 (virus H1N1 A/Weiss/43 [1]) | EC50 (virus H1N1 A/Weiss/43 [2]) | F [3] | AUC(0-inf) (in vivo; iv, 1 mg/kg) | AUC(0-t) (in vivo; iv, 1 mg/kg) | Cmax (in vivo; iv, 1 mg/kg) | Tmax (in vivo; iv, 1 mg/kg) | Vd (in vivo; iv, 1 mg/kg) | clearance (in vivo; iv, 1 mg/kg) | half-life (in vivo; iv, 1 mg/kg) | AUC(0-inf) (in vivo; po, 5 mg/kg) | AUC(0-t) (in vivo; po, 5 mg/kg) | Cmax (in vivo; po, 5 mg/kg) | Tmax (in vivo; po, 5 mg/kg) | half-life (in vivo; po, 5 mg/kg)
O=C(O)C1C2CCC(CC2)C1Nc1cc(-c2ccccc2)nc(-c2c[nH]c3ncc(F)cc23)n1 (racemic) [Example 4, (+/−)-trans-3-((2-(5-fluoro-1H-pyrrolo[2,3-b]pyridin-3-yl)-6-phenylpyrimidin-4-yl)amino)bicyclo[2.2.2]octane-2-carboxylic Acid] | < 50 nM | 0.2 nM | 56.4% | 4610 ng·h/mL | 4540 ng·h/mL | 5980 ng/mL | 4.98 min | 0.412 L/kg | 3.66 mL/min/kg | 163 min | 12800 ng·h/mL | 12800 ng·h/mL | 3480 ng/mL | 40 min | 178 min
O=C(O)C1C2CCC(CC2)C1Nc1cc(-c2ccc(F)cc2)nc(-c2c[nH]c3ncc(F)cc23)n1 (racemic) [Example 6, (+/−)-trans-3-((2-(5-fluoro-1H-pyrrolo[2,3-b]pyridin-3-yl)-6-(4-fluorophenyl)pyrimidin-4-yl)amino)bicyclo[2.2.2]octane-2-carboxylic Acid] | < 50 nM | – | – | – | – | – | – | – | – | – | – | – | – | – | –
O=C(O)C1C2CCC(CC2)C1Nc1nc(-c2c[nH]c3ncc(F)cc23)nc2c1CCCC2 (racemic) [Example 2, (+/−)-trans-3-((2-(5-fluoro-1H-pyrrolo[2,3-b]pyridin-3-yl)-5,6,7,8-tetrahydroquinazolin-4-yl)amino)bicyclo[2.2.2]octane-2-carboxylic Acid] | < 50 nM | – | 47.1% | 3470 ng·h/mL | 3440 ng·h/mL | 4910 ng/mL | 4.98 min | 1.26 L/kg | 4.9 mL/min/kg | 63.6 min | 8180 ng·h/mL | 8080 ng·h/mL | 4020 ng/mL | 25 min | 79.8 min
COc1ccc(-c2cc(NC3C4CCC(CC4)C3C(=O)O)nc(-c3c[nH]c4ncc(F)cc34)n2)cc1 (racemic) [Example 3, (+/−)-trans-3-((2-(5-fluoro-1H-pyrrolo[2,3-b]pyridin-3-yl)-6-(4-methoxyphenyl)pyrimidin-4-yl)amino)bicyclo[2.2.2]octane-2-carboxylic Acid] | < 50 nM | – | – | – | – | – | – | – | – | – | – | – | – | – | –
O=C(O)C1C2CCC(CC2)C1Nc1nc(-c2c[nH]c3ncc(F)cc23)nc2ccccc12 (racemic) [Example 1, (+/−)-trans-3-((2-(5-fluoro-1H-pyrrolo[2,3-b]pyridin-3-yl)quinazolin-4-yl)amino)bicyclo[2.2.2]octane-2-carboxylic Acid] | < 50 nM | – | 42.1% | 5020 ng·h/mL | 4960 ng·h/mL | 5900 ng/mL | 4.98 min | 1.03 L/kg | 3.42 mL/min/kg | 67.8 min | 10600 ng·h/mL | 10100 ng·h/mL | 3130 ng/mL | 50 min | 88.8 min
O=C(O)C1C2CCC(CC2)C1Nc1cc(-c2cc3ccccc3s2)nc(-c2c[nH]c3ncc(F)cc23)n1 (racemic) [Example 17, (+/−)-trans-3-((6-(benzo[b]thiophen-2-yl)-2-(5-fluoro-1H-pyrrolo[2,3-b]pyridin-3-yl)pyrimidin-4-yl)amino)bicyclo[2.2.2]octane-2-carboxylic Acid] | – | 0.54 nM | 66.4% | 2520 ng·h/mL | 2510 ng·h/mL | 4420 ng/mL | 4.98 min | 1.49 L/kg | 6.62 mL/min/kg | 67.2 min | 8360 ng·h/mL | 8270 ng·h/mL | 2660 ng/mL | 30 min | 54.7 min
